From DBAASP come the findings set out here.

What is called MIC is the lowest concentration found to suppress growth. Higher therefore signals a less susceptible organism.

Test systems include Bacillus subtilis 168 HT; Escherichia coli MG1655; Acinetobacter baumannii; Klebsiella pneumoniae; Pseudomonas aeruginosa; Bacillus subtilis; Escherichia coli ML-35p.
Holding throughout (assay): ≥ marks a high value that may be exact or a test limit, other limits are often not marked, values filed in µg/mL are converted to µM
For experiment [1], the system named is Candida albicans ATCC 24433.
For experiment [2], the system named is Escherichia coli ATCC 25922.
The test system of experiment [3] is Staphylococcus epidermidis ATCC 12228.
The subject of experiment [4] is Escherichia coli K12 MG1655.
For experiment [5], the system named is Candida albicans NCYC 1467.
For experiment [6], the system named is Escherichia coli NCTC 10418.
Experiment [7] relates to Pseudomonas aeruginosa ATCC 27853.
Experiment [8] relates to Staphylococcus aureus NCTC 10788.
Experiment [9] concerns Acinetobacter baumannii ATCC 19606.
The test system of experiment [10] is Bacillus subtilis ATCC 6051.
Experiment [11] deals with Candida albicans ATCC 90028.
The test system of experiment [12] is Cryptococcus neoformans ATCC 208821.
Experiment [13] relates to Klebsiella pneumoniae ATCC 13883.
Experiment [14] has as its system Klebsiella pneumoniae ATCC 700603.
Experiment [15] concerns Klebsiella pneumoniae ATCC BAA-2146.
The test system of experiment [16] is Staphylococcus aureus ATCC 43300.
In experiment [17] the test system is Pseudomonas aeruginosa PAO1.
Experiment [18] relates to Staphylococcus aureus USA 300 LAC.
The test system of experiment [19] is Staphylococcus aureus USA 300.
Experiment [20] concerns Candida albicans ATCC 2002.
For experiment [21], the system named is Staphylococcus aureus ATCC 25923.
Experiment [22] has as its system Listeria monocytogenes ATCC 19115.

The structures appear in SMILES notation. ≈ marks a conversion by molar mass, not a printed value.

As for `CC[C@H](C)[C@H](NC(=O)CNC(=O)CNC(=O)[C@H](C)NC(=O)[C@@H](NC(=O)[C@H](CCCCN)NC(=O)[C@@H]1CCCN1C(=O)[C@@H](NC(=O)[C@H](CC(C)C)NC(=O)[C@H](CO)NC(=O)[C@H](CC(C)C)NC(=O)[C@@H](N)Cc1ccccc1)[C@@H](C)CC)[C@@H](C)CC)C(=O)N[C@@H](C)C(=O)N[C@@H](CO)C(=O)N[C@@H](CC(C)C)C(=O)N[C@H](C(=O)N[C@@H](CCCCN)C(=O)N[C@@H](CC(=O)O)C(=O)N[C@@H](CC(C)C)C(N)=O)C(C)C` [FLSLIPKIAGGIASLVKDL], the MIC was no less than 100 µM in [1], 100 µM (≈ 195 µg/mL) in experiment [2] and 100 µM (≈ 195 µg/mL) in experiment [3].
In the case of `CC[C@H](C)[C@H](NC(=O)[C@H](CCCCN)NC(=O)[C@H](CCCCN)NC(=O)[C@H](CC(C)C)NC(=O)[C@H](Cc1cnc[nH]1)NC(=O)[C@H](CCCCN)NC(=O)[C@H](CCCCN)NC(=O)[C@H](CC(C)C)NC(=O)[C@@H](N)CCCN=C(N)N)C(=O)N[C@@H](CCCCN)C(=O)O` [RLKKHLKKIK], the MIC in the experiment on Bacillus subtilis 168 HT and in the experiment with Escherichia coli MG1655 was no less than 99.1 µM in each case.
In the case of `CC[C@H](C)[C@H](N)C(=O)N[C@@H](CC(N)=O)C(=O)N[C@H](C(=O)N[C@H](C(=O)N[C@@H](CC(N)=O)C(=O)N[C@@H](C)C(=O)N1CCC[C@H]1C(=O)N[C@@H](CC(C)C)C(=O)N[C@@H](CCC(N)=O)C(=O)NCC(=O)N[C@@H](Cc1ccccc1)C(=O)N[C@@H](CCCCN)C(=O)N[C@H](C(=O)N[C@@H](C)C(=O)O)[C@@H](C)CC)[C@@H](C)CC)[C@@H](C)CC` [INIINAPLQGFKIA], the MIC amounted to 21.2 µM (≈ 32 µg/mL) with Bacillus subtilis 168 HT and 10.6 µM (≈ 16 µg/mL) in [4].
On to `CC(C)C[C@H](NC(=O)[C@H](CCCN=C(N)N)NC(=O)[C@H](CC(N)=O)NC(=O)[C@H](CC(C)C)NC(=O)[C@H](CCCCN)NC(=O)[C@H](CCCCN)NC(=O)[C@H](CC(C)C)NC(=O)[C@@H](NC(=O)[C@@H](N)CC(N)=O)C(C)C)C(=O)N[C@@H](CCCCN)C(=O)N[C@@H](CCC(=O)O)C(=O)N[C@@H](CCCCN)C(=O)N[C@@H](CC(N)=O)C(=O)N[C@@H](CCCCN)C(=O)N[C@@H](C)C(=O)N[C@@H](CCCCN)C(=O)N[C@@H](CC(N)=O)C(=O)N[C@@H](CO)C(=O)N[C@@H](CCCCN)C(=O)N[C@@H](CCC(=O)O)C(=O)N[C@@H](CC(N)=O)C(=O)N[C@@H](CC(N)=O)C(=O)O` [NVLKKLNRLKEKNKAKNSKENN], for which the MIC in [5] was no less than 98 µM; in [6] it was no less than 196 µM; in experiment [7], greater than 196 µM; in experiment [8] it was no less than 196 µM.
With `CC[C@H](C)[C@@H]1NC(=O)CNC(=O)[C@H](CCCN=C(N)N)NC(=O)[C@H](Cc2ccc(O)cc2)NC(=O)[C@@H]2CSSC[C@H](NC1=O)C(=O)N[C@@H](Cc1ccc(O)cc1)C(=O)N[C@@H](C)C(=O)N[C@@H](CCCN=C(N)N)C(=O)N[C@H](C(=O)N[C@@H](CCCN=C(N)N)C(=O)O)CSSC[C@H](NC(=O)[C@H](Cc1c[nH]c3ccccc13)NC(=O)[C@@H](N)CCCCN)C(=O)N[C@@H](Cc1ccccc1)C(=O)N[C@@H](CCCN=C(N)N)C(=O)N[C@@H](C(C)C)C(=O)N2` [KWCFRVCYRGICYARCR], the MIC in experiment [9] was determined as 0.0572 µM (≈ 0.125 µg/mL); against Acinetobacter baumannii, 0.0572 µM (≈ 0.125 µg/mL); in experiment [10], 0.0572 µM (≈ 0.125 µg/mL); in experiment [11], 3.66 µM (≈ 7.99 µg/mL); in experiment [12], 0.115 µM (≈ 0.25 µg/mL); in experiment [2], 0.0572 µM (≈ 0.125 µg/mL). Also, the MIC in [13] is 0.0275 µM (≈ 0.0599 µg/mL); in experiment [14] it was 0.229 µM (≈ 0.499 µg/mL); in experiment [15], 0.115 µM (≈ 0.25 µg/mL); against Klebsiella pneumoniae it was 0.458 µM (≈ 0.998 µg/mL); in experiment [7], 0.0572 µM (≈ 0.125 µg/mL); against Pseudomonas aeruginosa, 0.115 µM (≈ 0.25 µg/mL). In experiment [16], this compound had an MIC of 0.229 µM (≈ 0.499 µg/mL).
On to `CC[C@H](C)[C@H](NC(=O)CNC(=O)CNC(=O)[C@H](C)NC(=O)[C@@H](NC(=O)[C@H](CCCCN)NC(=O)[C@@H]1CCCN1C(=O)[C@@H](NC(=O)[C@H](CC(C)C)NC(=O)[C@H](CO)NC(=O)[C@H](CC(C)C)NC(=O)[C@@H](N)Cc1ccccc1)[C@@H](C)CC)[C@@H](C)CC)C(=O)N[C@@H](C)C(=O)N[C@@H](CO)C(=O)N[C@@H](CC(C)C)C(=O)N[C@H](C(=O)N[C@@H](CCCCN)C(=O)N[C@@H](CC(N)=O)C(=O)N[C@@H](CC(C)C)C(N)=O)C(C)C` [FLSLIPKIAGGIASLVKNL], for which the MIC in experiment [1] was no less than 50 µM; in experiment [2], 25 µM (≈ 48.8 µg/mL); in experiment [3], 6.25 µM (≈ 12.2 µg/mL).
Take `CC[C@H](C)[C@H](NC(=O)[C@H](CCCN=C(N)N)NC(=O)[C@H](CCCN=C(N)N)NC(=O)[C@H](CCCN=C(N)N)NC(=O)[C@H](Cc1c[nH]c2ccccc12)NC(=O)[C@H](Cc1c[nH]c2ccccc12)NC(=O)[C@@H](N)Cc1c[nH]c2ccccc12)C(=O)N[C@@H](Cc1c[nH]c2ccccc12)C(N)=O` [WWWRRRIW]: the MIC in experiment [2] came out at 25 µM (≈ 33.6 µg/mL); in [13], 25 µM (≈ 33.6 µg/mL); in experiment [17], 35.4 µM (≈ 47.5 µg/mL); in [18], 12.5 µM (≈ 16.8 µg/mL); in [19], 12.5 µM (≈ 16.8 µg/mL).
As for `CC[C@H](C)[C@H](NC(=O)[C@@H](N)CCCCN)C(=O)N[C@@H](Cc1c[nH]c2ccccc12)C(=O)N[C@@H](Cc1c[nH]c2ccccc12)C(=O)N[C@@H](Cc1c[nH]c2ccccc12)C(=O)N[C@@H](Cc1c[nH]c2ccccc12)C(=O)N[C@@H](CC(C)C)C(=O)N[C@@H](CCCN=C(N)N)C(N)=O` [KIWWWWLR], the MIC in [2] is 8.8 µM (≈ 11.2 µg/mL); in experiment [13], 12.5 µM (≈ 15.9 µg/mL); in experiment [18] it was 3.1 µM (≈ 3.94 µg/mL).
In the case of `CC[C@H](C)[C@H](NC(=O)[C@H](C)NC(=O)[C@@H](NC(=O)[C@@H](NC(=O)[C@H](CCCCN)NC(=O)[C@@H](NC(=O)[C@H](CCCCN)NC(=O)[C@H](CC(=O)O)NC(=O)[C@H](CCCN=C(N)N)NC(=O)[C@@H](NC(=O)[C@@H](N)CO)[C@@H](C)CC)[C@@H](C)CC)[C@@H](C)O)[C@@H](C)CC)C(=O)N[C@@H](CC(=O)O)C(=O)N[C@@H](CC(C)C)C(=O)N[C@@H](C)C(=O)N[C@@H](CCCCN)C(=O)N[C@@H](CO)C(=O)N[C@@H](C)C(=O)NCC(=O)N[C@H](C(=O)NCC(=O)N[C@H](C(=O)N[C@@H](CC(C)C)C(=O)N[C@@H](CCCCN)C(=O)N[C@H](C(=O)N[C@@H](CC(C)C)C(=O)N[C@H](C(=O)N[C@H]1CSSC[C@@H](C(=O)O)NC(=O)[C@H](CO)NC(=O)[C@H](CCCCN)NC(=O)[C@H](CC(=O)O)NC(=O)[C@H](CC(C)C)NC(=O)[C@H](CCCCN)NC1=O)[C@@H](C)CC)[C@@H](C)O)C(C)C)[C@@H](C)O` [SIRDKIKTIAIDLAKSAGTGVLKTLICKLDKSC], the minimal inhibitory concentration (MIC) against Bacillus subtilis is 2.68 µM (≈ 9.37 µg/mL); in experiment [20] it was 1.61 µM (≈ 5.63 µg/mL); with Escherichia coli ML-35p it was 7.13 µM (≈ 25 µg/mL); in experiment [7], greater than 28.5 µM; in experiment [21] it was 1.34 µM (≈ 4.69 µg/mL).
Take `CC(C)C[C@H](NC(=O)[C@H](Cc1ccccc1)NC(=O)[C@@H]1CCCN1C(=O)[C@@H]1CCCN1C(=O)[C@H](CC(N)=O)NC(=O)[C@@H](NC(=O)[C@@H](NC(=O)[C@@H]1CCCN1C(=O)[C@@H](N)[C@@H](C)O)C(C)C)C(C)C)C(=O)N[C@@H](CCC(N)=O)C(=O)N[C@@H](CCC(N)=O)C(=O)N[C@H](C(N)=O)[C@@H](C)O` [TPVVNPPFLQQT]: the MIC in experiment [22] was no less than 382 µM.
